Assay results: patent US20140199410A1, “EDIBLE BROWN ALGAE EXTRACT WITH A LOW IODINE CONTENT” (ALGUES ET MER, priority 2011, published 2014)

Target: T1, alpha-amylase (Homo sapiens, UniProt P0DUB6)
T1 sequence (P0DUB6 16-511): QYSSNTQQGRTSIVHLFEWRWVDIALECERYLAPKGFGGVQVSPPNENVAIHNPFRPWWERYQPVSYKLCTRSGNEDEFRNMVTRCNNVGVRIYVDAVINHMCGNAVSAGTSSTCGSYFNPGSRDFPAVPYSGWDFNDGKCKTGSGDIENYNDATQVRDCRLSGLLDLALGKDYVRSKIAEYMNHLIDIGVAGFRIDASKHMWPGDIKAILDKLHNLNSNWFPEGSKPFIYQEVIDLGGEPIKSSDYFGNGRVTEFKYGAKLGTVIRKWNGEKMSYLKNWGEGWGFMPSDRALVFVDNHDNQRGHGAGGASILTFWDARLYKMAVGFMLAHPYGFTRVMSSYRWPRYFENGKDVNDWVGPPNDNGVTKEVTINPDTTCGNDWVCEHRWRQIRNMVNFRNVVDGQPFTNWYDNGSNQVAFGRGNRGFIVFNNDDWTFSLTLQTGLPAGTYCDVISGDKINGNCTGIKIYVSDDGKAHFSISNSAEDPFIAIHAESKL
Assay: In vitro inhibition of alpha-amylase (colorimetric, starch to maltose)
Type: biochemical
Settings: read-out: Inhibitory Activity Alpha-amylase
Procedure: The methods for determining enzyme activities are conventional colorimetric methods.
The principle is as follows: • starch is incubated with an enzyme (for example human salivary amylase).

## C[C@H]1O[C@H](O[C@H]2[C@H](O)[C@@H](O)[C@@H](O[C@H]3[C@H](O)[C@@H](O)C(O)O[C@@H]3CO)O[C@@H]2CO)[C@H](O)[C@@H](O)[C@@H]1N[C@H]1C=C(CO)[C@@H](O)[C@H](O)[C@H]1O (stereo partly shown) [Glucor ™, Acarbose]
  inhibition at 1000 µg/mL: 93%
